The text below walks through data of a melting point compilation (Tetko et al.; mined from patent text by program, amines drawn as free bases though some values may be those of a salt).

One may read the melting point as the temperature, or range, at which the solid turns liquid.

SMILES strings stand for the structures.

`CC(C)c1cc2nc(N)[nH]c(=O)c2cc1-c1ccc(Cl)cc1`: the melting point lay within 326 to 330 °C. Turning to `CC(C)(c1ccccc1)c1ccc(N)c(S(=O)(=O)O)c1`, the melting point lay in the range of 263 to 265 °C. For the molecule `CC(Cn1cc[nH]c1=NC#N)c1ccc(OC(F)F)c(OC2CCOC2)c1` (centres undefined), the melting point worked out at 67.8 °C. In turn, `C#Cc1ccnc(-c2cc([N+](=O)[O-])c(-c3cc(C#C)ccn3)cc2N)c1` displayed a melting point of 154 to 160 °C. Turning to `CC1(C)[C@H]2CC=C(CCOCC(=O)O)[C@@H]1C2`, the melting point fell in the range of 78 to 80 °C.

The molecule `COc1cc(NC(=O)Oc2ccc(N(CCCl)CCCl)cc2)cc(Nc2c3ccccc3nc3ccccc23)c1` gave a melting point of 179 to 180 °C. Turning to `O=C(Cn1ccnc1)c1ccccc1O`, the melting point was in the range of 195 to 200 °C. For `CCC(C)(C)OC(=O)NC(C)(Cc1c[nH]c2ccccc12)C(=O)NCCc1ccc(Cl)cc1` (centres undefined), the melting point was 150 to 153 °C. In turn, `CCc1cc(OCc2ccc(-c3ccccc3C(=O)O)cc2)c2ccccc2n1` came in with a melting point of 204 to 205 °C.

Regarding `O=C(Cl)c1c(Cl)nc2ccc(Br)cc2c1-c1ccccc1`, the melting point is 166 to 170 °C. Consider `Cc1cc(C(N)=O)c2c(c1)C(C(Cl)(Cl)Cl)OC(C(Cl)(Cl)Cl)O2` (centres undefined), for which the melting point was in the range of 281 to 283 °C. Consider `Nc1c2c(nc3[nH]c4ccccc4c13)CCCC2=O`, for which the melting point was more than 300 °C.

The molecule `O=C(Cn1cc(-c2ccc3nnn(Cc4ccc5ncccc5c4)c3n2)cn1)N1CCCC1` came in with a melting point of 136 to 138 °C. Then `N#Cc1cn(-c2cccnc2)nc1-c1ccc([N+](=O)[O-])o1`, with 206 to 207 °C; and `COc1ccc(C(C)(O)Cn2cc[nH]c2=O)cc1OC1CCCC1` (centres undefined), with 136 °C; and `O=C(CN1C(=O)c2ccccc2C1=O)Nc1ccccc1Cl`, with 250 °C. Regarding `O=C1CC(c2ccccc2)c2cc(O)ccc2O1` (centres undefined), the melting point turned out to be 138 °C. Then `CC(C)(C)c1cc(-c2n[nH]c(=S)[nH]2)cc(C(C)(C)C)c1O`, with 271 °C. Regarding `C[C@H](NC(=O)Cc1ccccc1)C(=O)O`, the melting point lay within 102 to 104 °C. Take `NC(=O)c1ncn(CCCc2ccc(OCc3coc(/C=C/c4ccccc4)n3)cc2)c1C(N)=O`: the melting point was 194 to 195 °C. In turn, `COC(=O)C1=C(C(=O)OC)C2OC1c1cc3c(cc12)OCO3` came in with a melting point of 117 to 119 °C. As for `CC(=O)C(C(C)=O)c1ccccc1`, the melting point lay within 40 to 52 °C.

For `CCCN1CCCC(c2cccc(O)c2)C1=O` (centres undefined), the melting point was 61 to 63 °C. As to `COC(=O)C(=O)c1ccc(OCCCc2ccc3ccccc3c2)cc1`, the melting point lay within 97 to 99 °C. For `O=C(NCCCc1c[nH]c2ccc(OCc3ccc4ccccc4n3)cc12)OCc1ccccc1`, the melting point lay in the range of 109 to 111 °C. The molecule `CC(=O)c1ccc(CCC(=O)O)c(C(=O)O)c1` registered a melting point of 76 °C. As for `CC(C)c1ccc(-c2nc3ccc(OC(F)(F)F)cc3[nH]2)cc1`, the melting point was 203 to 205 °C. For `Cc1ccc2oc(N(C=O)[C@@H](Cc3ccccn3)c3ncc(-c4ccc(N5CCOCC5)cc4)n3C)cc2c1` the value was 125 to 127 °C; for `CN1CC(CCCl)Oc2ccc(Br)cc2C1=S` (centres undefined), 118 to 120 °C. Molecule `c1ccc(-c2nc3ccccc3o2)nc1` yielded a melting point of 105 to 107 °C. `CC(CNC(=O)N(CCC(F)(F)F)CCC12CC3CC(CC(C3)C1)C2)Cc1ccncc1` (centres undefined): the melting point fell in the range of 81.1 to 84.1 °C. `CN1CC(c2ccc(Cl)cc2)C(=O)C(c2cccc(C(F)(F)F)c2)C1` (centres undefined) came in with a melting point of 116 °C.

Regarding `CCC1CCC(Oc2cc(F)cc(C(=O)Nc3ccc(OCCN4CCOCC4)c4ccccc34)c2)CC1` (centres undefined), the melting point is 102 to 105 °C. Regarding `CCCCOc1cc(/C=C(\OCC)C(=O)O)ccc1OCCc1ccc(NS(C)(=O)=O)cc1`, the melting point was 141 °C. For `CC(C)NC(=O)[C@H](C)C[C@H](O)[C@H](CC1CCCCC1)NC(=O)[C@H](Cc1cscn1)NC(=O)OC(C)(C)C` the value was 185 to 187 °C; for `CC(C)=CCOc1ccc(C(=O)C=Cc2ccc(C(C)(C)C)cc2)c(OCC(=O)O)c1`, 136 to 139 °C.

Molecule `CCOC(=O)N(C)CCCC1c2cccc3c2N(CC3)c2ccccc2N1C(C)=O` (centres undefined) returned a melting point of 125 to 128 °C. `CS(=O)c1ccc(-n2cnc3ccc(-c4nnc(CCc5cccc(C#N)c5)o4)cc32)cc1` (centres undefined) yielded a melting point of 194 to 195 °C. For `Cc1cccc(Nc2ncnc3ccc(N)cc23)c1` the value was 205 to 206 °C; for `Cc1cc(=O)n(-c2cc(C(=O)O)c(Cl)cc2F)c(=O)n1C(F)F`, 247 to 248 °C; for `CNC(=O)c1ccccc1Nc1nc(Nc2ccc3c(c2)CCCCN3C)ncc1Cl`, 170 to 172 °C. Then `COc1cc(-c2c(-c3ccncc3)c(-c3ccc(F)cc3)nn2CCO)ccn1`, with 168 to 169 °C; and `O=S1(=O)NCN(C2CC2)c2ccc(C(F)(F)F)cc21`, with 155 to 157 °C.

`CC(=O)OC(C)C(=O)Nc1ccc(C2=NNC(=O)CC2C)cc1` (centres undefined) gave a melting point of 198 to 200 °C. On to `Cc1cc(-n2cncn2)c2cccc(OCc3c(Cl)ccc(S(=O)(=O)N4CCC[C@H]4C(=O)NCC4CCN(CCOCCO)CC4)c3Cl)c2n1`, for which the melting point stood at 82 °C. In turn, `O=C(/C=C/c1ccccc1)NCCC1CCN(Cc2ccccc2)CC1` showed a melting point of 125 to 127 °C.

`COc1ccccc1OCCOS(C)(=O)=O` displayed a melting point of 73 to 76 °C. `CCC1(CC)C(=O)c2cc(OCC(=O)O)c(C)c(C)c2C1=O` returned a melting point of 134 to 136 °C.

Molecule `CCOC(=O)CC(C#N)(CC(=O)OCC)c1ccc(Cl)c(Cl)c1` gave a melting point of 69 to 71 °C. In turn, `COc1ccc2c(c1)CN(C(=O)CCCCCN1CCN(c3cccc(C(F)(F)F)c3)CC1)C2` registered a melting point of 92 °C.

The molecule `Nc1nc2c(s1)CCN(CC=Cc1cccc(F)c1)CC2` displayed a melting point of 128 to 132 °C. On to `O=C(NCCO)c1cccc(-c2cccc3c2OC(Cc2cccc(C(F)(F)F)c2)C3)c1` (centres undefined), for which the melting point lay within 161 to 162 °C. In the case of `Cc1ccccc1-c1cn(C)cc(-c2cccc(Cl)c2)c1=O`, the melting point was 171 to 173 °C. With `CN1CC[C@@H](c2c(O)cc(O)c3c(=O)cc(-c4cccc(F)c4)oc23)[C@@H]1CO`, the melting point fell in the range of 218 to 220 °C.

As for `O=C1C(=Cc2cccc(C(F)(F)F)c2)SC(=S)N1N=c1sc2ccccc2s1`, the melting point is 268 to 269 °C. For `Cc1cc(C#N)cc(CBr)c1` the value was 80 to 81 °C; for `CCCn1nc2c(N)nc3ccccc3c2c1CCNC(=O)OCC`, 143 to 144 °C; for `CC(C)NCC(O)c1cnc(N)c(Cl)c1` (centres undefined), 146 °C. The molecule `N#Cc1cnc2cc(O)ccc2c1Nc1ccc2cn[nH]c2c1` had a melting point of more than 250 °C.

`CN(C)c1cccc2c(S(=O)(=O)Nc3ccc(Cl)cn3)cccc12` came in with a melting point of 160 to 162 °C. `COc1ccc(NC(C)=S)cc1C` registered a melting point of 88.5 to 89 °C.

The molecule `CCc1cccc(NC(=O)C(C#N)=C(C)N(C)C)c1` registered a melting point of 98 to 100 °C. `CCCNC(=O)c1cccnc1Oc1cccnc1`: the melting point lay within 55 to 56 °C. `O=C(Cc1c(F)c(F)nc(F)c1Cl)OCc1ccccc1` displayed a melting point of 87 to 92 °C.
